{"source": "patent US20170051306A1", "about": "“NOVEL METHOD FOR LABELLING CANCERIZATION-CAUSING CELL IN STEM CELLS, AND THERAPY METHOD” (KAGOSHIMA UNIVERSITY, priority 2014, published 2017)", "molecules": {"B1": {"name": "tmpk (F105Y): genetically improved human thymidylate kinase used as suicide gene (protein, UniProt P23919 2-212, looked up, variant F105Y)", "Thymidylate kinase": "AARRGALIVLEGVDRAGKSTQSRKLVEALCAAGHRAELLRFPERSTEIGKLLSSYLQKKSDVEDHSVHLLFSANRWEQVPLIKEKLSQGVTLVVDRYAFSGVAYTGAKENFSLDWCKQPDVGLPKPDLVLFLQLQLADAAKRGAFGHERYENGAFQERALRCFHQLMKDTTLNWKMVDASKSIEAVHEDIRVLSEDAIRTATEKPLGELWK"}}, "key": {"[1]": {"test_system": "mouse ES/iPS cells or human ES/iPS cells", "details": "cells subcutaneously transplanted; Non-Patent Documents 7 and 8; cited from earlier work"}, "[2]": {"test_system": "KhES1 cells after differentiation induction treatment", "experiment": "Safety upon in vitro GCV administration to differentiated cells", "quoted_text": "Analysis was conducted using the above sorted KhES1 cells to confirm safety upon GCV administration after differentiation induction. For differentiation induction, cells were seeded on a 96-well low adhesive plate containing ES medium (excluding LIF) at 3×10^3 cells per well. Culture was performed for one week so that an embryonic body was formed. Thereafter, subculture on a gelatin-coated dish was continued for 28 days or more so that sufficiently differentiated cells were produced. Cells subjected to differentiation induction were re-seeded on a 96-well plate at 1×10^5 cells per well. Starting from the following day, GCV was administered at 0, 0.01, 0.1, 1, 10, and 100 μg/mL to the groups of survivin-Venus-2A-HSV-tk (A), CAG-Venus-2A-HSV-tk (B), survivin-Venus-2A-puromycin lacking HSV-tk (C), and non-infected cells (NC)(D) for 4 days."}, "KhES1 cells [3]": {"test_system": "KhES1 cells", "experiment": "In vitro toxicity of GCV on undifferentiated lentivirus-infected cells", "quoted_text": "Cells were infected with the vectors. The infected cells (GFP-positive cells) were sorted using FACS ARIA II (BD).\nIn the case of KhES 1, KhES 1 cells were cultured overnight in medium containing 10 μM Y27632, treated with CTK, and dispersed into separate cells. The number of cells was counted, a necessary amount of cells were centrifuged (1000 rpm, 5 minutes), and resuspended in 10 μM Y27632-containing PBS. Alexa Fluor 488 anti-Human SSEA4 (BIOLEGEND) serving as an antibody for labeling undifferentiated cells (5 μL) was added to 100 μL of a cell suspension (1×10^6 cells), cells were suspended on ice for every 10 minutes during stationary placement for 30 minutes for labeling of the cells. The cells were washed once with 10 μM Y27632-containing PBS, suspended in 10 μM Y27632-containing ES medium, and then GFP-positive cells labeled with the antibody were evaluated as undifferentiated lentivirus-infected KhES 1 cells using a flow cytometer.\nCytotoxic effects after GCV administration were analyzed using the above sorted KhES1 cells and D3 cells. KhES1 cells were seeded on a 96-well plate at 1×10^5 cells per well. […] Cytotoxic effects after 4-day administration were determined by WST-8 assay, which is modified MTT assay. […] Absorbance of this formazan at 450 nm was directly measured, thereby determining the number of viable cells (E)."}, "KhES1 cells [4]": {"test_system": "KhES1 cells", "experiment": "In vitro cytotoxic effects of suicide genes plus drug, viable cell count", "assay_type": "cell-based, human", "details": "high-concentration AZT", "description": "The total amount of the resulting product was administered. The medium was renewed 24 hours later. […] Then, 10 μL of the cells were collected."}, "Jurkat cells": {"test_system": "Jurkat cells", "experiment": "AZT sensitivity of sorted cells constitutively expressing human-tmpk versus non-infected cells (NC)", "assay_type": "cell-based", "details": "AZT at high concentrations", "description": "(§1) In addition, regarding human-tmpk, after infection with a lentiviral vector, a similar experiment was conducted using sorted cells permanently-expressing the gene based on specificity to CD19.\n(§2) Starting from the following day, AZT was administered at 0, 0.1, 1, 10, 100, and 1000 μM to each well for 3 days, and the number of viable cells was counted by the method described above."}, "MKN45 cells [5]": {"test_system": "MKN45 cells", "experiment": "AZT sensitivity of sorted cells constitutively expressing human-tmpk versus non-infected cells (NC)", "assay_type": "cell-based", "details": "AZT at high concentrations", "description": "as §1, §2"}, "MKN45 cells [6]": {"test_system": "MKN45 cells", "experiment": "In vitro cytotoxic effects of suicide genes plus drug, viable cell count", "details": "high concentration AZT", "quoted_text": "In order to evaluate cytotoxicity of suicide genes in cells of each type, HSV-tk, human-tmpk, and iCaspase9 were introduced into cells, and cell killing effects were examined and compared with the addition of drugs. […] For human-tmpk and iCasp9, plasmids were introduced into cells. Cells of each type described below were seeded on a 24-well plate at the corresponding number of cells. • KhES1 cells: 4×10^4 cells/well • MKN45 cells: 2×10^4 cells/well (only tmpk iCasp9) • BJ cells: 1×10^4 cells/well\nOn the following day, infection with Ad.CAG-HSV-tk at MOI=10 was performed, the medium was renewed 24 hours later, and then 10 μL of GCV (10 μg/mL) was administered for 4 days. For human-tmpk and iCasp9, 0.5 μg of each plasmid was added to 25 μL of OPTI-MEM, and 2 μL of FUGENE HD (QIAGEN) was added, followed by vortexing and stationary placement of 15 minutes. The total amount of the resulting product was administered. The medium was renewed 24 hours later. Then, AZT was administered at 0, 30, 100, and 300 μM to each well of human-tmpk-transfected cells for 3 days. For iCasp3, Dimerizer was administered at 0, 0.03, 0.1, and 0.3 μM to each well for 3 days. After drug administration, cytotoxic effects were determined by counting the number of viable cells. […] Trypan blue (10 μL) was added to each collected cell suspension and the number of viable cells was counted."}, "[7]": {"details": "tmpk with minimum gene modification; cited from earlier work"}}, "data": [{"molecule": "Nc1nc(O)c2ncn(COC(CO)CO)c2n1", "note": "[GCV, ganciclovir]", "values": [{"measurement": "tumor reduction by GCV administration", "setting": "[1]", "value": "tumors can be reduced by GCV administration"}, {"measurement": "cytotoxicity in non-infected cells (NC) after differentiation", "setting": "[2]; GCV 0 to 100 μg/mL for 4 days", "value": "No cytotoxicity was observed"}, {"measurement": "non-specific cell killing effects in differentiated cells", "setting": "[2]; GCV at 10 μg/mL or more, compared with undifferentiated cells", "value": "Non-specific cell killing effects were not observed"}, {"measurement": "specificity of GCV toxicity", "setting": "[2]; undifferentiated versus differentiated KhES1 cells, with or without HSV-tk", "value": "exhibits toxicity only in undifferentiated cells under the presence of HSV-tk"}, {"measurement": "cytotoxic effects in non-infected cells (NC)", "setting": "KhES1 cells [3]; GCV 1 μg/mL", "value": "cytotoxic effects were not observed"}, {"measurement": "HSV-tk-non-specific cytotoxicity", "setting": "KhES1 cells [3]; GCV concentration of 10 μg/mL or more", "value": "HSV-tk-non-specific cytotoxicity was observed"}]}, {"molecule": "Cc1cn([C@H]2C[C@H](N=[N+]=[N-])[C@@H](CO)O2)c(=O)[nH]c1=O", "note": "[AZT, 3′-azido-3′-deoxythymidine]", "values": [{"measurement": "cell damage in cells not transfected with human-tmpk", "setting": "KhES1 cells [4]", "value": "cell damage was observed even in cells not transfected with human-tmpk"}, {"measurement": "cell damage in cells not transfected with human-tmpk", "setting": "Jurkat cells", "value": "cell damage was observed even in cells not transfected with human-tmpk"}, {"measurement": "cell damage in cells not infected with human-tmpk", "setting": "MKN45 cells [5]", "value": "cell damage was induced at high concentrations even in cells not infected with human-tmpk"}, {"measurement": "cell damage in cells not transfected with human-tmpk", "setting": "MKN45 cells [6]", "value": "Cell damage was observed even in cells not transfected with human-tmpk"}]}, {"molecule": "B1", "values": [{"measurement": "increased action on AZT-MP", "setting": "[7]", "value": 200, "unit": "fold"}]}]}
